According to the NIST ThermoML archive (doi:10.1021/acs.jced.5b00251):

Assay: refractive index (other wavelength) (dimensionless); xn = mol fraction of the nth substance listed
Settings: 101 kPa, Liquid, Standard Abbe refractometry

CC(C)Cc1ccccc1 [(2-methylpropyl)benzene] + CCCCCCCCCCCC
refractive index
Settings	x1 = 0.1014	x1 = 0.2024	x1 = 0.3032	x1 = 0.4036	x1 = 0.5038	x1 = 0.6036	x1 = 0.7032	x1 = 0.8024	x1 = 0.9014
293.15 K, Wavelength=436.1 nm	1.43714	1.44344	1.45015	1.45682	1.46405	1.47144	1.47917	1.48711	1.49556
293.15 K, Wavelength=513.9 nm	1.4307	1.4365	1.44273	1.44889	1.45559	1.46247	1.46959	1.47693	1.48487
293.15 K, Wavelength=589.3 nm	1.42708	1.4326	1.43856	1.44443	1.45083	1.45746	1.46421	1.47122	1.47869
293.15 K, Wavelength=633.2 nm	1.42554	1.43094	1.4368	1.44255	1.44884	1.45524	1.46196	1.46884	1.47617
293.15 K, Wavelength=657.2 nm	1.42541	1.43084	1.43659	1.44269	1.44849	1.45427	1.46085	1.46776	1.47491
298.15 K, Wavelength=436.1 nm	1.43491	1.44124	1.44775	1.45454	1.46153	1.46903	1.47676	1.48462	1.49284
298.15 K, Wavelength=513.9 nm	1.42851	1.43425	1.44037	1.44665	1.45312	1.46005	1.46722	1.4745	1.48229
298.15 K, Wavelength=589.3 nm	1.4249	1.43032	1.43623	1.44221	1.44841	1.45504	1.46188	1.46882	1.47611
298.15 K, Wavelength=633.2 nm	1.42337	1.42885	1.43449	1.44035	1.44642	1.45293	1.45965	1.46646	1.47371
298.15 K, Wavelength=657.2 nm	1.42267	1.42867	1.43417	1.44009	1.44578	1.45198	1.45863	1.46548	1.47249
303.15 K, Wavelength=436.1 nm	1.43262	1.43872	1.44552	1.45204	1.45929	1.4666	1.47424	1.48209	1.49024
303.15 K, Wavelength=513.9 nm	1.42624	1.43187	1.43818	1.44421	1.45077	1.45769	1.46477	1.47203	1.47981
303.15 K, Wavelength=589.3 nm	1.42267	1.42804	1.43406	1.43981	1.44611	1.45269	1.45946	1.46639	1.47362
303.15 K, Wavelength=633.2 nm	1.42115	1.42643	1.43232	1.43796	1.44427	1.45059	1.45721	1.46405	1.47135
303.15 K, Wavelength=657.2 nm	1.42052	1.42618	1.4321	1.43801	1.44358	1.44965	1.45625	1.46299	1.47001
